Key:
Format in all cases: functional, cell-based
Conditions in all cases: Homo sapiens
HCT-116 [1] = experiment: Effect on apoptotic DNA fragmentation to differentitiate HCT 116 cells, at a concentration of 0.85 uM, 0.25 ug/ml was determined; - = Not potent
HCT-116 [2] = experiment: Effect on apoptotic DNA fragmentation to differentitiate HCT 116 cells, at a concentration of 3.2 uM, 1.0 ug/ml was determined; - = Not potent
HCT-116 [3] = experiment: Effect on apoptotic DNA fragmentation to differentitiate HCT 116 cells, at a concentration of 5.2 uM, 2.0 ug/ml was determined; - = Not potent
HCT-116 [4] = experiment: Effect on apoptotic DNA fragmentation to differentitiate HCT 116 cells, at a concentration of 4.1 uM, 1.2 ug/ml was determined; + = Potent
HCT-116 [5] = experiment: Effect on apoptotic DNA fragmentation to differentitiate HCT 116 cells, at a concentration of 1.6 uM, 0.5 ug/ml was determined; + = Potent
HCT-116 [6] = experiment: Effect on apoptotic DNA fragmentation to differentitiate HCT 116 cells, at a concentration of 0.11 uM, 0.03 ug/ml was determined; + = Potent
HCT-116 [7] = experiment: Effect on apoptotic DNA fragmentation to differentitiate HCT 116 cells, at a concentration of 3.6 uM, 1.0 ug/ml was determined; - = Non potent
HCT-116 [8] = experiment: Effect on apoptotic DNA fragmentation to differentitiate HCT 116 cells, at a concentration of 0.27 uM, 0.1 ug/ml was determined; + = Potent
HCT-116 [9] = experiment: Effect on apoptotic DNA fragmentation to differentitiate HCT 116 cells, at a concentration of 3.4 uM, 1.0 ug/ml was determined; - = Not potent
HCT-116 [10] = experiment: Effect on apoptotic DNA fragmentation to differentitiate HCT 116 cells, at a concentration of 3.5 uM, 1.0 ug/ml was determined; - = Not potent
HCT-116 [11] = experiment: Effect on apoptotic DNA fragmentation to differentitiate HCT 116 cells, at a concentration of 0.16 uM, […] was determined; + = Potent
HCT-116 [12] = experiment: Effect on apoptotic DNA fragmentation to differentitiate HCT 116 cells, at a concentration of 6.4 uM, 2.0 ug/ml was determined; - = Not potent

CO[C@@H]1/C=C/C(=O)O[C@@H](C)CCC/C=C\[C@@H]2C[C@H](O)C[C@H]21 was tested, and the DNA fragmentation (HCT-116 [1]) was “Not potent”.

With CO[C@@H]1C[C@@H]2[C@H](/C=C\CCC[C@H](C)OC(=O)/C=C/[C@H]2OC)C1 the DNA fragmentation (HCT-116 [2]) was “Not potent”.

For C[C@@H](O)CCC/C=C\[C@@H]1C[C@H](O)C[C@H]1[C@H](O)/C=C/C(=O)OCc1ccccc1, the DNA fragmentation (HCT-116 [3]) was “Not potent”.

For C[C@H]1CCC[C@@H]2O[C@@H]2[C@@H]2C[C@H](O)C[C@H]2[C@H](O)/C=C/C(=O)O1, the DNA fragmentation (HCT-116 [4]) was “Potent”.

With CC(=O)O[C@@H]1/C=C/C(=O)O[C@@H](C)CCC/C=C\[C@@H]2C[C@H](O)C[C@H]21 the DNA fragmentation (HCT-116 [5]) was “Potent”.

C[C@H]1CCC/C=C\[C@@H]2C[C@H](O)C[C@H]2[C@H](O)/C=C/C(=O)O1 was tested, and the DNA fragmentation (HCT-116 [6]) was “Potent”.

With C[C@H]1CCC/C=C\[C@@H]2CC(=O)C[C@H]2[C@H](O)/C=C/C(=O)O1 the DNA fragmentation (HCT-116 [7]) was “Non potent”.

For C[C@H]1CCC/C=C\[C@@H]2CC(=O)C[C@H]2C(=O)CCC(=O)O1, the DNA fragmentation (HCT-116 [7]) was “Non potent”.

With CC(=O)O[C@@H]1C[C@@H]2[C@H](/C=C\CCC[C@H](C)OC(=O)/C=C/[C@H]2OC(C)=O)C1 the DNA fragmentation (HCT-116 [8]) was “Potent”.

For C[C@@H](O)CCC/C=C\[C@@H]1C[C@H](O)C[C@H]1[C@H](O)/C=C/C(=O)O, the DNA fragmentation (HCT-116 [9]) was “Not potent”.

For C[C@H]1CCCCC[C@@H]2C[C@H](O)C[C@H]2[C@H](O)CCC(=O)O1, the DNA fragmentation (HCT-116 [10]) was “Not potent”.

In the case of CC(=O)O[C@@H]1C[C@H]2[C@H](O)/C=C/C(=O)O[C@@H](C)CCC/C=C\[C@@H]2C1, the DNA fragmentation (HCT-116 [11]) is reported as “Potent”.

COC(=O)/C=C/[C@@H](O)[C@@H]1C[C@@H](O)C[C@H]1/C=C\CCC[C@@H](C)O was tested, and the DNA fragmentation (HCT-116 [12]) was “Not potent”.

Reference: ChEMBL document CHEMBL1130556, “Synthesis and activity of brefeldin a analogs as inducers of cancer cell differentiation and apoptosis” (Bioorg Med Chem Lett, 1997)
